Source: patent US6693123B2 (University of Pittsburgh, priority 1995, dated 2004)
Counter-ions that a name gives are not always drawn.

How the values were obtained:
[1] = target: T1, Rat brain protein farnesyltransferase (Rattus norvegicus, UniProt Q02293+Q04631); test: In vitro inhibition of protein farnesyltransferase, Amersham scintillation proximity assay with biotin-K Ras B fragment; format: biochemical; conditions: Inhibition of farnesyltransferase; for inhibition at 10 µM: compound at 1 × 10^−5 M (Table 1); for inhibition at 1 µM: compound at 1 × 10^−6 M (Table 2), read-out: % inhibition at 1 × 10^−6 M
T1 construct: The enzyme is purified according to Reiss, Y., et al., Cell, 62: 81-88 (1990), utilizing steps one through three; from tissue; host or cells: rat brain

[2] = test system: geranylgeranyltransferase I; test: Inhibition of geranylgeranyltransferase I (glass fiber filter binding assay, H-Ras-CVLL, 3H-GGPP); format: biochemical, bovine; conditions: for Activity: % inhibition at 1 × 10^−7 M: compound at 1 × 10^−7 M (Table 5); for Activity: % inhibition at 1 × 10^−6 M: compound at 1 × 10^−6 M (Table 5)
Excerpt: The ability of the compounds of the invention to inhibit protein farnesyltransferase or protein geranylgeranyltransferase can be measured according to the method of Moores, et al., J. Biol. Chem. 266: 14603 (1991) or the method of Vogt, et al., J. Biol. Chem. 270:660-664 (1995). In addition, procedures for determination of the inhibition of farnesylation of the oncogene protein Ras are described by Goldstein, et al., J. Biol. Chem., 266:15575-15578 (1991) and by Singh in U.S. Pat. No. 5,245,061.
Additional methods for the measurement of in vitro inhibition of protein prenylation (i.e., inhibition of farnesyltransferase or geranylgeranyltransferase) are described below.
Assays are performed using the glass fiber filter binding assay procedure with either rabbit reticulocyte lysate or Frase or GGTase I fractions isolated from bovine brains using a combination of hydrophobic and DEAE column chromatography procedures. Protein substrates are purchased from Panvera Corporation (H-ras for FTase, H-ras-CVLL for GGTase I). Tritium labeled prenyl lipid substrates (FPP or GGPP) are obtained from Amersham Life Science.
^3H-geranylgeranyldiphosphate (final concentration 0.5 μM), H-Ras-CVLL (final concentration 5.0 μM) and the test compound (various final concentrations from a stock solution in 1:1 DMSO/water; final concentration DMSO <2%) were mixed in buffer (50 mM Tris-HCl (pH 7.2), 30 mM MgCl2, 20 mM KCl, 10 μM ZnCl2, 5 mM DTT, 0.01% Triton X-100) to give a final volume of 50 μL. The mixture was brought to 37° C., treated with enzyme, and incubated for 30 minutes. 1 mL of 1 M HCl/ethanol was added to stop the reaction, and the mixture was allowed to stand for 15 minutes at room temperature then diluted with 2 mL of ethanol. The reaction mixture was filtered through a 2.5 cm glass microfiber filter from Whatman and washed with four 2 mL portions of ethanol. The glass filter was transferred to a scintillation vial, and 5 mL scintillation fluid was added. The radioisotope retained on the glass fiber filter was counted to reflect the activity of the enzymes. The IC50 value was calculated by measuring the activity of the enzyme over a suitable range of inhibitor concentrations.

SMILES | inhibition at 1 µM [1] | Activity: % inhibition at 1 × 10^−6 M [2] | also measured
CC(C)C[C@H](NC(=O)c1ccc(CNCc2c[nH]cn2)cc1-c1cccc2ccccc12)C(=O)O [Example 955, N-[4-(Imidazol-4-ylmethylaminomethyl)-2-naphth-1-ylbenzoyl]leucine] |  |  | inhibition at 10 µM [1]: 50%; Activity: % inhibition at 1 × 10^−7 M [2]: >50% inhibition at 1 × 10^−7 M
Cc1ccccc1-c1cc(NCc2c[nH]cn2)ccc1C(=O)N[C@@H](CC(C)C)C(=O)O [Example 962, N-[4-(Imidazol-4-ylmethylamino)-2-(2-methylphenyl)benzoyl]leucine Hydrochloride] | > 50% |  | Activity: % inhibition at 1 × 10^−7 M [2]: >50% inhibition at 1 × 10^−7 M
CC(C)C[C@H](NC(=O)c1ccc(NCc2ncc[nH]2)cc1-c1ccccc1)C(=O)O [Example 953, N-[4-(Imidazol-2-ylmethylamino)-2-phenylbenzoyl]leucine] |  | >50% inhibition at 1 × 10^−6 M | melting point: 156 to 160 °C
CSCC[C@H](NC(=O)c1ccc(COc2cccnc2)cc1Oc1ccccc1)C(=O)O [Example 157, [4-(3-Pyridyloxymethylene)-2-phenoxybenzoyl]methionine] | 92% |  | melting point: 195 °C
Cc1cc(C)cc(-c2cc(NCc3cnc[nH]3)ccc2C(=O)N[C@@H](CC(C)C)C(=O)O)c1 [Example 399] | > 50% | >50% inhibition at 1 × 10^−6 M | 
O=C(N[C@@H](CC1CCCCC1)C(=O)O)c1ccc(NCc2c[nH]cn2)cc1-c1cccc2ccccc12 [Example 974, N-[4-(Imidazol-4-ylmethylamino)-2-naphth-1-ylbenzoyl]cyclohexyalanine] |  |  | inhibition at 10 µM [1]: > 50%; Activity: % inhibition at 1 × 10^−5 M ([2]; compound at 1 × 10^−5 M (Table 5)): >50% inhibition at 1 × 10^−5 M
CC(C)C[C@H](NC(=O)c1ccc(OCCn2ccnc2)cc1-c1ccccc1)C(=O)O [Example 964, N-[4-(2-Imidazol-1-ylethoxy)-2-phenylbenzoyl]leucine] | > 50% | >50% inhibition at 1 × 10^−6 M | 
